Experimental data taken from US7615564B2, “Isoquinoline derivatives having kinasae inhibitory activity and drugs containing the same” (Kirin Beer Kabushiki Kaisha, priority 2002, dated 2009).

Columns and labels:
[1] = molecular target: T1, Recombinant Rho kinase (fused protein composed of bovine Rho kinase catalytic region and glutathione S-transferase) (Bos taurus, UniProt Q28021); assay: Rho kinase inhibitory activity (phosphorylation of S6 231-239 substrate with γ32P-ATP); assay type: biochemical; conditions: concentration inhibiting substrate phosphorylation by 50%
T1 construct: fused protein composed of bovine Rho kinase catalytic region and glutathione S-transferase; glutathione S-transferase (GST); made in house; host or cells: insect cells infected with baculovirus
T1 sequence (Q28021 92-354 limits assumed): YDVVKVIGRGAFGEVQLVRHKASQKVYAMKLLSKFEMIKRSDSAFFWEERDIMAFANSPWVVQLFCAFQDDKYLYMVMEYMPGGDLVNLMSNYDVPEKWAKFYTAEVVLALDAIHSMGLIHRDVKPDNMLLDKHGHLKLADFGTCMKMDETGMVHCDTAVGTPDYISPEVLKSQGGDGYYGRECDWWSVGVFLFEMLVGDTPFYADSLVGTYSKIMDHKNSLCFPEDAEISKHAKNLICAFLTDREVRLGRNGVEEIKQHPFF
Method: This permits the substrate to be labeled with the radioisotope.
Thereafter, the substrate was adsorbed to a filter paper. ATP was washed away with a phosphoric acid solution, and the amount of the phosphorylated substrate was then measured with a liquid scintillation counter.

[2] = tested on: Mouse-derived CCR2 overexpressing human-derived histiocyte lymphoma (U937/CCR2); assay: Leukocyte migration inhibitory activity (MCP-1 induced migration, CHEMOTAXICELL); assay type: cell-based; conditions: U-937, test compound concentration 10 μg/ml, MCP-1 ligand, migration 1 hr
Method: Mouse-derived CCR2 overexpressing human-derived histiocyte lymphoma (U937/CCR2), was suspended in a 0.1% BSA-containing RPMI 1640 medium, to which a test compound had been added (5×10^6/ml), and the suspension was incubated for 20 min. A chemical solution (500 μl) (0.1% BSA-containing RPMI 1640 medium DMSO 1%), to which an MCP-1 ligand (1 μM) and the test compound had been added, was added to a 24-well plate. CHEMOTAXICELL was put thereon, and 200 μl of the cell suspension was added to the top layer, followed by migration under a 5% CO2 atmosphere at 37° C. for one hr. The number of cells, which had migrated to the lower chamber, was counted with a particle count analyzer (CDA-500, SYSMEX CORPORATION), and the percentage migration inhibition was calculated by the following equation: Migration inhibition (%)=(1−number of migrated cells in the presence of test compound/number of migrated cells in the absence of test compound)×100

Row | IC50 [1] [nM] | Structure (SMILES) | inhibition at 10 µg/mL [2] [%]
1 | 1300 | c1ccc(CN2CCCC(Nc3cccc4cnccc34)C2)nc1 (centres unmarked) [Example 32, N-(5-Isoquinolinyl)-N-[1-(2-pyridylmethyl)-3-piperidyl]amine] | –
2 | 670 | c1cc(NC2CCCN(Cc3cc[nH]c3)C2)c2ccncc2c1 (centres unmarked) [Example 40, N-(5-Isoquinolinyl)-N-[1-(1H-3-pyrrolylmethyl)-3-piperidyl]amine] | –
3 | 96 | Cc1ccc(CN2CCC(Nc3cccc4cnccc34)C2)cc1 (centres unmarked) [Example 7, N-(5-Isoquinolyl)-N-[1-(4-methylbenzyl)tetrahydro-1H-3-pyrrolyl]amine] | 103
4 | 210 | Clc1ccccc1CN1CCCC(Nc2cccc3cnccc23)C1 (centres unmarked) [Example 20, N5-[1-(2-Chlorobenzyl)-3-piperidyl]-5-isoquinolylamine] | 69
5 | 400 | Nc1cc(Cl)ccc1CN1CCCC(Nc2cccc3cnccc23)C1 (centres unmarked) [Example 38, N5-[1-(2-Amino-4-chlorobenzyl)-3-piperidyl]-5-isoquinolylamine] | –
6 | 93 | Fc1ccc(CN2CCC(Nc3cccc4cnccc34)C2)cc1 (centres unmarked) [Example 4, N5-[1-(4-Fluorobenzyl)tetrahydro-1H-3-pyrrolyl]-5-isoquinolylamine] | 98
7 | 110 | c1cc(NC2CCCN(Cc3ccoc3)C2)c2ccncc2c1 (centres unmarked) [Example 44, N-[1-(3-Furylmethyl)-3-piperidyl]-N-(5-isoquinolyl)amine] | –
8 | 480 | c1ccc(CN2CCC(Nc3cccc4cnccc34)C2)nc1 (centres unmarked) [Example 13, N-(5-Isoquinolyl)-N-[1-(2-pyridylmethyl)tetrahydro-1H-3-pyrrolyl]amine] | –
9 | 1000 | c1cncc(CN2CCCC(Nc3cccc4cnccc34)C2)c1 (centres unmarked) [Example 33, N-(5-Isoquinolinyl)-N-[1-(3-pyridylmethyl)-3-piperidyl]amine] | –
10 | 140 | Clc1cccc(Cl)c1CN1CCC(Nc2cccc3cnccc23)C1 (centres unmarked) [Example 6, N5-[1-(2,6-Dichlorobenzyl)tetrahydro-1H-3-pyrrolyl]-5-isoquinolylamine] | –
11 | 200 | c1coc(CN2CCCC(Nc3cccc4cnccc34)C2)c1 (centres unmarked) [Example 43, N-[1-(2-Furylmethyl)-3-piperidyl]-N-(5-isoquinolyl)amine] | –
12 | 290 | Nc1ccc(CN2CCCC(Nc3cccc4cnccc34)C2)cc1 (centres unmarked) [Example 37, N5-[1-(4-Aminobenzyl)-3-piperidyl]-5-isoquinolylamine] | –
13 | 23 | c1c[nH]c(CN2CCCC(Nc3cccc4cnccc34)C2)c1 (centres unmarked) [Example 39, N-(5-Isoquinolinyl)-N-[1-(1H-2-pyrrolylmethyl)-3-piperidyl]amine] | –
14 | 73 | Fc1cccc(F)c1CN1CCC(Nc2cccc3cnccc23)C1 (centres unmarked) [Example 5, N5-[1-(2,6-Difluorobenzyl)tetrahydro-1H-3-pyrrolyl]-5-isoquinolylamine] | 93
15 | 660 | O=[N+]([O-])c1ccc(CN2CCC(Nc3cccc4cnccc34)C2)cc1 (centres unmarked) [Example 11, N-(5-Isoquinolyl)-N-[1-(4-nitrobenzyl)tetrahydro-1H-3-pyrrolyl]amine] | –
16 | 240 | Nc1cc(Cl)ccc1CN1CCC(Nc2cccc3cnccc23)C1 (centres unmarked) [Example 19, N5-[1-(2-Amino-4-chlorobenzyl)tetrahydro-1H-3-pyrrolyl]-5-isoquinolylamine] | 82
17 | 63 | Clc1cccc(CN2CCC(Nc3cccc4cnccc34)C2)c1 (centres unmarked) [Example 2, N5-[1-(3-Chlorobenzyl)tetrahydro-1H-3-pyrrolyl]-5-isoquinolylamine] | 90
18 | 2300 | O=[N+]([O-])c1cc(Cl)ccc1CN1CCCC(Nc2cccc3cnccc23)C1 (centres unmarked) [Example 31, N5-[1-(4-Chloro-2-nitrobenzyl)-3-piperidyl]-5-isoquinolylamine] | –
19 | 99 | Clc1ccccc1CN1CCC(Nc2cccc3cnccc23)C1 (centres unmarked) [Example 1, N5-[1-(2-Chlorobenzyl)tetrahydro-1H-3-pyrrolyl]-5-isoquinolylamine] | 86
20 | 270 | Clc1cccc(CN2CCCC(Nc3cccc4cnccc34)C2)c1 (centres unmarked) [Example 21, N5-[1-(3-Chlorobenzyl)-3-piperidyl]-5-isoquinolylamine] | 97
21 | 230 | Fc1cccc(F)c1CN1CCCC(Nc2cccc3cnccc23)C1 (centres unmarked) [Example 24, N5-[1-(2,6-Difluorobenzyl)-3-piperidyl]-5-isoquinolylamine] | –

Row | IC50 [1] [nM] | Structure (SMILES) | inhibition at 10 µg/mL [2] [%]
22 | 180 | Cc1ccc(CN2CCCC(Nc3cccc4cnccc34)C2)cc1 (centres unmarked) [Example 26, N-(5-Isoquinolinyl)-N-[1-(4-methylbenzyl)-3-piperidyl]amine] | –
23 | 580 | O=[N+]([O-])c1ccccc1CN1CCCC(Nc2cccc3cnccc23)C1 (centres unmarked) [Example 28, N-(5-Isoquinolinyl)-N-[1-(2-nitrobenzyl)-3-piperidyl]amine] | –
24 | 230 | Nc1ccc(CN2CCC(Nc3cccc4cnccc34)C2)cc1 (centres unmarked) [Example 18, N5-[1-(4-Aminobenzyl)tetrahydro-1H-3-pyrrolyl]-5-isoquinolylamine] | 94
25 | 66 | Clc1ccc(CN2CCC(Nc3cccc4cnccc34)C2)cc1 (centres unmarked) [Example 3, N5-[1-(4-Chlorobenzyl)tetrahydro-1H-3-pyrrolyl]-5-isoquinolylamine] | 101
26 | 200 | O=[N+]([O-])c1cccc(CN2CCC(Nc3cccc4cnccc34)C2)c1 (centres unmarked) [Example 10, N-(5-Isoquinolyl)-N-[1-(3-nitrobenzyl)tetrahydro-1H-3-pyrrolyl]amine] | –
27 | 570 | O=[N+]([O-])c1ccccc1CN1CCC(Nc2cccc3cnccc23)C1 (centres unmarked) [Example 9, N-(5-Isoquinolyl)-N-[1-(2-nitrobenzyl)tetrahydro-1H-3-pyrrolyl]amine] | –
28 | 200 | CC(C)c1ccc(CN2CCC(Nc3cccc4cnccc34)C2)cc1 (centres unmarked) [Example 8, N5-[1-(4-Isopropylbenzyl)tetrahydro-1H-3-pyrrolyl]-5-isoquinolylamine] | –
29 | 31 | c1cc(NC2CCCN(Cc3ccsc3)C2)c2ccncc2c1 (centres unmarked) [Example 42, N-(5-Isoquinolinyl)-N-[1-(3-thienylmethyl)-3-piperidyl]amine] | –
30 | 210 | Nc1ccccc1CN1CCC(Nc2cccc3cnccc23)C1 (centres unmarked) [Example 16, N5-[1-(2-Aminobenzyl)tetrahydro-1H-3-pyrrolyl]-5-isoquinolylamine] | 99
31 | 190 | c1csc(CN2CCCC(Nc3cccc4cnccc34)C2)c1 (centres unmarked) [Example 41, N-(5-Isoquinolinyl)-N-[1-(2-thienylmethyl)-3-piperidyl]amine] | –
32 | – | Clc1ccc(CN2CCCC(Nc3cccc4cnccc34)C2)cc1 (centres unmarked) [Example 22, N5-[1-(4-Chlorobenzyl)-3-piperidyl]-5-isoquinolylamine] | 80
33 | 240 | c1ccc(CN2CCCC(Nc3cccc4cnccc34)C2)cc1 (centres unmarked) [Example 23, N-(1-Benzyl-3-piperidyl)-5-isoquinolylamine] | –
34 | 590 | c1cncc(CN2CCC(Nc3cccc4cnccc34)C2)c1 (centres unmarked) [Example 14, N-(5-Isoquinolyl)-N-[1-(3-pyridylmethyl)tetrahydro-1H-3-pyrrolyl]amine] | –
35 | 1300 | O=[N+]([O-])c1cc(Cl)ccc1CN1CCC(Nc2cccc3cnccc23)C1 (centres unmarked) [Example 12, N5-[1-(4-Chloro-2-nitrobenzyl)tetrahydro-1H-3-pyrrolyl]-5-isoquinolylamine] | –
36 | 1800 | O=[N+]([O-])c1ccc(CN2CCCC(Nc3cccc4cnccc34)C2)cc1 (centres unmarked) [Example 30, N-(5-Isoquinolinyl)-N-[1-(4-nitrobenzyl)-3-piperidyl]amine] | –
37 | 1100 | c1cc(NC2CCN(Cc3ccncc3)C2)c2ccncc2c1 (centres unmarked) [Example 15, N-(5-Isoquinolyl)-N-[1-(4-pyridylmethyl)tetrahydro-1H-3-pyrrolyl]amine] | –
38 | 1500 | c1cc(NC2CCCN(Cc3ccncc3)C2)c2ccncc2c1 (centres unmarked) [Example 34, N-(5-Isoquinolinyl)-N-[1-(4-pyridylmethyl)-3-piperidyl]amine] | –
39 | 1900 | O=[N+]([O-])c1cccc(CN2CCCC(Nc3cccc4cnccc34)C2)c1 (centres unmarked) [Example 29, N-(5-Isoquinolinyl)-N-[1-(3-nitrobenzyl)-3-piperidyl]amine] | –
40 | 1200 | Clc1cccc(Cl)c1CN1CCCC(Nc2cccc3cnccc23)C1 (centres unmarked) [Example 25, N5-[1-(2,6-Dichlorobenzyl)-3-piperidyl]-5-isoquinolylamine] | –
41 | 310 | Nc1cccc(CN2CCCC(Nc3cccc4cnccc34)C2)c1 (centres unmarked) [Example 36, N5-[1-(3-Aminobenzyl)-3-piperidyl]-5-isoquinolylamine] | –
42 | 270 | Nc1ccccc1CN1CCCC(Nc2cccc3cnccc23)C1 (centres unmarked) [Example 35, N5-[1-(2-Aminobenzyl)-3-piperidyl]-5-isoquinolylamine] | –
